In patent publication US20080200405A1, “Drug Resistance Reversal In Neoplastic Disease” (priority 2007, published 2008):

How the values were obtained:
Angiogenesis in CAM = experiment: Neovascularization on the CAM (Inhibition of Angiogenesis in CAM); type: in vivo, chicken; conditions: 30 ug
Description: In vivo neovascularization was examined by the method previously described by Auerbach et al. (J. Dev. Biol. 41:391-394 (1974)). Ten-day old chicken embryos were purchased from Spafas, Inc. (Preston, Conn.) and were incubated at 37° C. with 55% relative humidity. In the dark, with the aid of a candling lamp, a small hole was punctured in the shell concealing the air sac with a hypodermic needle. A second hole was punctured in the shell on the broadside of the egg directly over an […] portion of the embryonic membrane, as observed during candling. An artificial air sac was created beneath the second hole by applying gentle vacuum to the first hole using a small rubber squeeze bulb. The vacuum caused the chorioallantoic membrane (CAM) to separate from the shell. A window, approximately 1.0 cm^2, was cut in the shell over the dropped CAM with the use of a small crafts grinding wheel (Dremel, Division of Emerson Electric Company Racine, Wis.). The window allowed direct access to the underlying CAM. A pro-angiogenic agent was added to induce new blood vessel branches on the CAM of 10-day old embryos. […] Louis, Mo.) in a solution (95% ethanol and water). The disks were subsequently air dried under sterile conditions. The disks were then suspended in PBS (Phosphate Buffered Saline) and placed on growing CAMs. […] For inducing angiogenesis, sterile filter disks were saturated with bFGF (1 μg/ml) (Life Technologies, Gaithersburg, Md.) or other pro-angiogenesis factors and control disks were saturated with PBS without Calcium and Magnesium. Control disks were saturated with PBS without Calcium and Magnesium. Using sterile forceps one filter/CAM was placed from the window. The window was sealed with Highland brand transparent tape. After 24-48 hr, 10-25 ul of test agent was injected intravenously or added topically into the CAM membrane. Eight-Ten eggs/treatment group were used. CAM tissue directly beneath filter disk was harvested from embryos treated 48 hours prior with compound or control. Tissues were washed three times with PBS. Sections were placed in a 35-mm petri dish (Nalge Nunc, Rochester, N.Y.) and examined under a SV6 stereomicroscope (Karl Zeiss, Thornwood, N.Y.) at 50× magnification. […] Digital images of CAM sections from Petri dish were collected using a 3-CCD color video camera system (Toshiba America, New York, N.Y.). These images were analyzed using Image-Pro Plus software (Media Cybernetics, Silver Spring, Md.). The number of branch points in blood vessels within the circular region superimposed to the area of a filter disk was counted for each section. […] Tissues were washed three times with PBS. Sections were placed in a 35-mm Petri dish (Nalge Nunc; Rochester, N.Y.) and were examined under a SV6 stereomicroscope (Karl Zeiss; Thornwood, N.Y.) at 50× magnification. Digital images of CAM sections adjacent to filters were collected using a 3-CCD color video camera system (Toshiba America; New York, N.Y.) and analyzed with the Image-Pro Plus software (Media Cybernetics; Silver Spring, Md.). The number of vessel branch points contained in a circular region equal to the area of a filter disk was counted for each section. Percent inhibition data are expressed as the quotient of the experimental value minus the negative control value divided by the difference between the positive control value and the negative control value. One image was counted in each CAM preparation, and findings from eight CAM preparations were analyzed for each treatment condition. In addition, each experiment was performed three times. The resulting angiogenesis index is the mean ±SEM (Standard Error of Measurement) of new branch points in each set of treatment. Statistical analysis of blood vessel branching patterns are performed by 1-way analysis of variance (ANOVA) comparing experimental with corresponding control groups.

[1] = In vitro stability of OT-551 in rat plasma; type: in vitro ADME
Description: (§1) The active metabolite of OT-551 (Cyclopropanecarboxylic acid 1-hydroxy-2,2,6,6-tetramethyl-piperidin-4-yl ester) is TP-H. The objective of this analysis was to determine the in vitro half-life of OT-551 in rat, rabbit, dog, and human plasma under standardized incubation conditions.
(§2) OT-551 was incubated with pooled rat, rabbit, dog, and human plasma for various times under standardized incubation conditions. Pre-labeled tubes containing pooled plasma from rats, rabbits, dogs, and humans were pre-incubated in a shaking 37° C. water bath. A OT-551 solution was added to the tubes at a final concentration of 1000 ng/mL. Time zero samples (n=5) were immediately removed and transferred into tubes containing a stabilizer solution (DTPA, acetylcysteine and ascorbic acid), the LC/MS/MS assay internal standard and methanol. […] The tubes were vortexed, placed on ice, followed by centrifugation. One hundred-μL aliquots of the supernatant were transferred into HPLC sample vials. Additional tubes (n=5 at each time point) were incubated for 5, 10, 20, 30, 60, 120, and 240 minutes at 37° C. and thereafter processed. The amount of OT-551 and TP-H in each incubated sample was quantified using validated LC/MS/MS assays.

[2] = In vitro stability of OT-551 in rabbit plasma; type: in vitro ADME
Description: as §1, §2

[3] = In vitro stability of OT-551 in human plasma; type: in vitro ADME
Description: as §1, §2

[4] = Single-dose 10-minute intravenous infusion toxicokinetics of OT-551; type: in vivo, Sprague-Dawley rats; conditions: for Cmax of OT-551: Sprague-Dawley rats
Description: Blood for toxicokinetic evaluations was collected at pre-determined time points during and after the infusion. Plasma samples were analyzed for OT-551 and TP-H using validated LC/MS/MS assays. Descriptive toxicokinetic parameters were determined by standard model independent methods (Gilbaldi and Perrier, 1982) based on the plasma concentration-time data. […] The plasma concentrations were rounded to the nearest tenth of a ng/mL before the calculations. […] Nominal time points were used for all calculations. Since there was no apparent gender difference in the plasma concentrations of OT-551 and TP-H, the data for male and female rats at each sampling time point were pooled.

In the case of `CC1(C)CC(OC(=O)C2CC2)CC(C)(C)N1O.Cl` [OT-551, 1-hydroxy-4-cyclopropanecarbonyloxy-2,2,6,6-tetramethylpiperidine hydrochloride], the “Inhibition of Angiogenesis in CAM, % Inhibition” value (Angiogenesis in CAM; listed as OT-551 HCl, hydrochloride) is reported as 74 ± 4%, the inhibition in vivo at 0.03 mg (Angiogenesis in CAM; Gallus gallus) is reported as 75.2 ± 9.7% and the “Concentrations (ng/mL) of OT-551 in Rat Plasma” value (“Concentrations … in Rat Plasma” for short) ([1]; incubation time 0 min) is reported as 806.50 ± 86.77 ng/mL. For the same molecule, the “Concentrations … in Rat Plasma” value ([1]; incubation time 5 min) was 770.32 ± 20.66 ng/mL, the “Concentrations … in Rat Plasma” value ([1]; incubation time 10 min) was 745.77 ± 15.50 ng/mL and the “Concentrations … in Rat Plasma” value ([1]; incubation time 20 min) was 682.88 ± 16.94 ng/mL. The “Concentrations … in Rat Plasma” value ([1]; incubation time 30 min) was 613.79 ± 25.84 ng/mL, the “Concentrations … in Rat Plasma” value ([1]; incubation time 60 min) was 480.48 ± 10.69 ng/mL and the “Concentrations … in Rat Plasma” value ([1]; incubation time 120 min) was 277.94 ± 5.55 ng/mL. The “Concentrations … in Rat Plasma” value ([1]; incubation time 240 min) was 80.70 ± 2.02 ng/mL, the “Concentrations (ng/mL) of OT-551 in Rabbit Plasma” value (from here on “Concentrations … in Rabbit Plasma”) ([2]; incubation time 0 min) was 502.75 ± 74.66 ng/mL and the “Concentrations … in Rabbit Plasma” value ([2]; incubation time 5 min) was 14.56 ± 3.35 ng/mL. For the same molecule, the “Concentrations … in Rabbit Plasma” value ([2]; incubation time 10 min) was 0.00 ± 0.00 ng/mL, the “Concentrations … in Rabbit Plasma” value ([2]; incubation time 20 min) was 0.00 ± 0.00 ng/mL and the “Concentrations … in Rabbit Plasma” value ([2]; incubation time 30 min) was 0.00 ± 0.00 ng/mL. The “Concentrations … in Rabbit Plasma” value ([2]; incubation time 60 min) was 0.00 ± 0.00 ng/mL, the “Concentrations … in Rabbit Plasma” value ([2]; incubation time 120 min) was 0.00 ± 0.00 ng/mL and the “Concentrations … in Rabbit Plasma” value ([2]; incubation time 240 min) was 0.00 ± 0.00 ng/mL. The “Concentrations (ng/mL) of OT-551 in Human Plasma” value (“Concentrations … in Human Plasma” for short) ([3]; incubation time 0 min) was 775.47 ± 22.50 ng/mL, the “Concentrations … in Human Plasma” value ([3]; incubation time 5 min) was 593.43 ± 7.55 ng/mL and the “Concentrations … in Human Plasma” value ([3]; incubation time 10 min) was 503.18 ± 20.90 ng/mL. The “Concentrations … in Human Plasma” value ([3]; incubation time 20 min) was 394.69 ± 6.72 ng/mL, the “Concentrations … in Human Plasma” value ([3]; incubation time 30 min) was 316.37 ± 7.67 ng/mL and the “Concentrations … in Human Plasma” value ([3]; incubation time 60 min) was 162.41 ± 9.77 ng/mL. The “Concentrations … in Human Plasma” value ([3]; incubation time 120 min) was 32.22 ± 2.63 ng/mL, the “Concentrations … in Human Plasma” value ([3]; incubation time 240 min) was 0.00 ± 0.00 ng/mL and the “peak plasma concentration of OT-551 at the end of the infusion” value (“peak plasma concentration” below) ([4]; 10 mg/kg OT-551, 10-minute i.v. infusion) was 980.5 ng/mL. The “plasma level of OT-551 one hour after termination of the infusion” value ([4]; 10 mg/kg, assay limit <50 ng/mL) was “not quantifiable”, the “peak plasma concentration” value ([4]; 30 mg/kg OT-551, 10-minute i.v. infusion) was 3487.1 ng/mL and the “peak plasma concentration” value ([4]; 100 mg/kg OT-551, 10-minute i.v. infusion) was 29020.0 ng/mL. For the same molecule, the “peak plasma concentration” value ([4]; 200 mg/kg OT-551, 10-minute i.v. infusion) was 89740.8 ng/mL, the “plasma levels of OT-551 four hours after termination of the infusion” value ([4]; 30 to 200 mg/kg, assay limit <50 ng/mL) was “not quantifiable” and the “Cmax of OT-551” value ([4]; 10-minute iv infusion of OT-551 10 mg/kg) was 980.5 ng/mL. For the same molecule, the “Cmax of OT-551” value ([4]; 10-minute iv infusion of OT-551 30 mg/kg) was 3487.1 ng/mL, the “Cmax of OT-551” value ([4]; 10-minute iv infusion of OT-551 100 mg/kg) was 29020.0 ng/mL and the “Cmax of OT-551” value ([4]; 10-minute iv infusion of OT-551 200 mg/kg) was 89740.8 ng/mL. For the same molecule, the “clearance of OT-551 in rats” value ([4]; rat, in vivo) was “very rapid”.
